Assay results taken from patent US11884653B2, “Arylnaphthalene compounds as vacuolar-ATPase inhibitors and the use thereof” (Purdue Research Foundation, priority 2018, dated 2024).

Target: V-ATPase
Test: acridine orange quenching (proton-pumping function of V-ATPase) in isolated HEK293 vesicles
Format: biochemical
Settings: read-out: AO Quenching IC50
Description: To assess if ability of diphyllin and derivatives to inhibit endosomal acidification is due to the expected ability of diphyllin to inhibit V-ATPase activity, compounds were assayed for inhibition of both the proton-pumping and ATPase functions of the isolated V-ATPase enzyme. V-ATPase containing vesicles were isolated from HEK293 cells following methods similar to that found in […]. (Zoncu, R. et al., Science 2011, 334, 678-683). To determine the effect of compounds upon the proton pumping function of V-ATPase, isolated vesicles were incubated with acridine orange and the compound or vehicle for 1 h prior to the addition of ATP which initiated pump activity. The quenching of the 530 nm emission of acridine orange was measured over 1h before addition of nigericin to relax the proton gradient within vesicles. IC50 values against the proton-pumping function of V-ATPase could be assessed by quantifying the change in Acridine Orange (AO) fluorescence immediately before and after the addition of nigericin.
HEK293 vesicle isolation-Cells were grown to confluency in a 175 cm^2 flask (Corning) before growth media was removed and replaced with serum-free DMEM for 2 h. 1 μM FCCP in DMEM was then added for 15 min before cells were scrapped form the plate and pelleted at 1000×g for 5 min. […]

- IC50: 61 ± 2.84 nM
SMILES: COc1cc2c(OCCCN3CCN(CCO)CC3)c3c(c(-c4ccc5c(c4)OCO5)c2cc1OC)C(=O)OC3 [Compound 2i, 9-(benzo[d][1,3]dioxol-5-yl)-4-(3-(4-(2-hydroxyethyl)piperazin-1-yl)propoxy)-6,7-dimethoxynaphtho[2,3-c]furan-1(3H)-one]
